Test results taken from patent publication US9750844B2, “Composition for use in wound healing in burns” (ACADEMIA SINICA, priority 2014, dated 2017).
“Also recorded” adds a separate entry of the source.

Legend:
MRSA [1] = experiment: MRSA-infected full-thickness skin excision wound in mice: survival, wound closure, angiogenesis; format: in vivo, Balb/C mice; conditions: for survival of infected mice: wound infected with 10^6 CFU MRSA, topical treatment
Protocol: Six to eight week old Balb/C male mice were used for the examples. MRSA culture and quantification were carried out, and suspensions were serially diluted and spread onto LB-agar plates in duplicate for 24 hours. After the incubation period, colony forming units (CFU) were counted, averaged, and expressed as CFU/ml. All animal handing procedures were in accordance with National Taiwan Ocean University (NTOU) guidelines. All procedures were approved by the Animal Care and Use Committee of NTOU.
The mice were housed individually to prevent fighting and further damage to the wounds, and were given ad libitum access to food and water. The mice were maintained under 12 h/12 h light/dark cycle at a room temperature, and adapted to the environment for at least a week before used in the experiments. Each mouse's hair was removed from the back by shaving, and a full-thickness excisional wound (1 cm in diameter) was created on the back of the mice.
(§1) Each wound was inoculated with 50 μl of broth mix containing 10^6 CFU of the indicated microorganism. The wounds were treated with the antimicrobial peptide according to the invention and collagen at 5 min after inoculation. At 30 min after treatment, wounds were covered with Tegaderm to maintain uniformity and to prevent the loss of the materials as treated. The wounds were examined at Day 3, 7, and 14 after the wounds were created, and the non-contaminated wounds were examined every other day. The wounds were examined to assess the transitions from inflammatory to regenerative and regenerative to resolving phases of the wound healing. At the end of the examination period, the animals were euthanized by CO2 inhalation and the wounds were assessed. For each experiment, four individuals were examined in each group at each time point. Each wound was measured and then removed from the animal, with unwounded skin taken from the contralateral abdomen as a control.
Tracings were taken immediately after injury. For uncontaminated wounds, wound size was determined every second day. For contaminated wounds, mice were euthanized at Day 3, 7, 14, or 17, and tracings of the wound edges were made. Wound areas were determined using the Macintosh Adobe Photoshop program and histological examination. The percentage of wound contraction was calculated as follows: % Wound contraction=(A0−At)/A0×100%
where A0 is the area of the original wound, and At is the area of the wound on Day 3, 7, 14, and 17.
Multidrug-resistant strains of Staphylococcus aureus (MRSA) commonly associated with human wound infections were selected to generate a polymicrobial solution. The initial inoculum was prepared by culturing aerobic bacteria in Tryptic Soy Broth (TSB) overnight at 37° C. Broths were subsequently centrifuged at 1000 rpm for 15 min, and resuspended in TSB with 15% glycerol, or chopped meat extract with 15% glycerol (for aerobic bacteria). The concentration was adjusted to 10^6 cfu/50 μl, and stored at −80° C. Prior to wound application, the bacterial stocks were re-mixed. Microbial load was determined by direct plating, followed by freeze-thaw and cfu enumeration, in parallel with inoculations. The inoculum was delivered by sterile pipettes to the center of open wounds. After euthanization (at Day 0, 3, 7, 14, or 17), two bisected tissue segments were used to determine microbial load using the protocol for human wound biopsy culture, as stated in the UPMC Clinical Microbiology Laboratory Procedure Manual. Tissue biopsies were weighed and placed in 1.5 ml of TSB, and then homogenized in a tissue grinder. A single drop of the homogenate was placed on the slide and Gram stained for rough assessment (if one or more bacteria are present within the oil immersion field, the expected count in the tissue is at least 10^5 cfu/g). Serial dilutions (1:10 (0.1+0.9)) of the tissue homogenate were made using distilled water. The cfu/g of tissue was calculated as follows: cfu/g=plate count (1/dilution)×10/wt. of homogenized tissue. […]

MRSA [2] = experiment: Assessment of wound infection: bacterial load (CFU) and Gram staining of wound tissue; format: in vivo, Balb/C mice; conditions: for Gram staining of MRSA / Gram-positive microorganisms in wound sections: Day 3 after inoculation
Protocol: Tissue samples were homogenized in PBS. Serially diluted aliquots of homogenate were cultured on Luria-Bertani agar after incubation for 18 h at 37° C., and cfu/g tissue were subsequently calculated. A stable wound infection was defined as 10^6 cfu/g tissue.
(§2) Full-thickness tissue was harvested for microbial and histological analysis. Samples from each experiment were fixed in 4% buffered paraformaldehyde. Tissue samples were stained with hematoxylin/eosin or Giemsa, and immunohistochemistry (IHC) was analyzed by three independent investigators. Images were taken with a BX-51 microscope (Olympus, Japan).
Multidrug-resistant strains of Staphylococcus aureus (MRSA) commonly associated with human wound infections were selected to generate a polymicrobial solution. The initial inoculum was prepared by culturing aerobic bacteria in Tryptic Soy Broth (TSB) overnight at 37° C. Broths were subsequently centrifuged at 1000 rpm for 15 min, and resuspended in TSB with 15% glycerol, or chopped meat extract with 15% glycerol (for aerobic bacteria). […] Prior to wound application, the bacterial stocks were re-mixed. Microbial load was determined by direct plating, followed by freeze-thaw and cfu enumeration, in parallel with inoculations. The inoculum was delivered by sterile pipettes to the center of open wounds. After euthanization (at Day 0, 3, 7, 14, or 17), two bisected tissue segments were used to determine microbial load using the protocol for human wound biopsy culture, as stated in the UPMC Clinical Microbiology Laboratory Procedure Manual. Tissue biopsies were weighed and placed in 1.5 ml of TSB, and then homogenized in a tissue grinder. A single drop of the homogenate was placed on the slide and Gram stained for rough assessment (if one or more bacteria are present within the oil immersion field, the expected count in the tissue is at least 10^5 cfu/g). Serial dilutions (1:10 (0.1+0.9)) of the tissue homogenate were made using distilled water. The cfu/g of tissue was calculated as follows: cfu/g=plate count (1/dilution)×10/wt. of homogenized tissue.

MCP-1, IL-6, TNF = experiment: Serum cytokine/chemokine ELISA in MRSA-infected wounded mice; format: in vivo, Balb/C mice; conditions: Epi-1 study, 24 h post-treatment
From the text: (§3) Elisa kits for […] (Cat no. 555260, BD Biosciences, CA, USA), IL-6 (Cat no. 555240, BD Biosciences, CA, USA), and TNF (Cat no. 558534, BD Biosciences, CA, USA) were used to determine cytokine levels. Antibodies against macrophages (Cat no. 550282, BD Biosciences, CA, USA), monocytes (Cat no. 101301, BioLegend, London, UK), and VEGF (Cat no. 550549, BD Biosciences, CA, USA) were used for immunohistochemistry (IHC). Fish scale collagen peptides (FSCPs) were isolated from tilapia (Oreochromis sp.) by the Seafood Technology Division, Fisheries Research Institute, Council of Agriculture, Taiwan.
as §1

MRSA [3] = experiment: Antimicrobial MIC/MBC assay against MRSA in vitro; format: cell-based, Staphylococcus aureus; conditions: bacterial proliferation by optical density at 600 nm
Protocol: Minimum inhibitory concentration (MIC) and minimum bactericidal concentration (MBC) antimicrobial assays were performed. For MIC assessment, the antimicrobial peptide, Epi-1, was diluted to final concentrations of […], or 0.78 μg/ml. Twenty microliters of each dilution were mixed in a microtiter plate well with […] of the appropriate bacterial indicator suspension, and 160 μl of Trypticase Soy Broth (TSB) for S. aureus, to a total volume of 200 μl. Three replicates were examined for each S. aureus strain, compound, and concentration. Positive controls contained water instead of compounds, and negative controls contained compounds without bacterial suspensions. Microbial growth was automatically determined by optical density measurement at 600 nm (Bioscreen C, Labsystem, Helsinki, Finland). Microplates were incubated at 25° C. for plant pathogens and at 37° C. for food-borne bacterial strains. Absorbance readings were taken at hourly intervals over a 48 h period. Plates were shaken for 20 seconds before each measurement. The experiment was repeated twice.

[4] = system: monocytes, macrophages, VEGF; experiment: Histology (H&E, Giemsa) and immunohistochemistry of wound tissue; format: in vivo, Balb/C mice
From the text: as §3, §2

| Compound | wound closure time (MRSA [1]; contaminated wounds, GE33 study (FIG. 8B)) | survival of infected mice (MRSA [1]) | Gram staining of MRSA / Gram-positive microorganisms in wound sections (MRSA [2]) | wound flora at Day 3 (MRSA [2]; initial inoculum approximately 10^4 cfu/10 μl) | induction of IL-6 in serum (MCP-1, IL-6, TNF) | induction of TNF-α in serum (MCP-1, IL-6, TNF) | wound closure (MRSA [1]; MRSA-infected wound, compared to vancomycin-treated mice and control mice) | new blood vessel formation (angiogenesis) (MRSA [1]; MRSA-infected wounded skin, light microscopy) | MRSA CFU in cultured injured skin sections (MRSA [2]; 24 h after treatment, compared to the control) | bacterial counts in cultured skin sections (CFU) (MRSA [2]; MRSA-infected mice, compared with vancomycin) | antibacterial efficacy against MRSA in vitro (MRSA [3]) | IHC staining of VEGF ([4]; infected wound, Day 3) | IHC staining/infiltration of macrophages ([4]; infected wound, Day 3) | IHC staining/infiltration of monocytes ([4]; infected wound, Day 3) | accumulation/recruitment of monocytes (Giemsa staining) ([4]; wounded area tissue sections, MRSA-infected) | MCP-1 induction by MRSA in serum (MCP-1, IL-6, TNF) | healing and re-epithelialization of excision region (MRSA [1]; wound infected with 10^6 cfu MRSA, 3, 7, 14 days) | colony counts between Days 7 and 17 (MRSA [2]; MRSA-contaminated wounds) | overall epidermal maturation, keratinization and regeneration of the epithelium ([4]; histology of wounds) |
| --- | --- | --- | --- | --- | --- | --- | --- | --- | --- | --- | --- | --- | --- | --- | --- | --- | --- | --- | --- |
| COc1cccc(OC)c1C(=O)N[C@@H]1C(=O)N2[C@@H]1SC(C)(C)[C@@H]2C(=O)O [methicillin] | lack of closure | died within four days | completely abolished | about 10^8 cfu/10 μl | unaffected | unaffected |  |  |  |  |  |  |  |  |  |  |  |  |  |
| Epinecidin-1 (GFIFHIIKGLFHAGKMIHGLV; grouper) [Epi-1] |  |  | completely abolished; also recorded: more efficient at attenuating MRSA infection than vancomycin |  | significantly decreased | significantly decreased | faster | more prominent | significantly reduced | significantly lower | good antibacterial efficacy | clearly reduced | clearly reduced | clearly reduced | reduced their recruitment | decreased |  |  |  |
| CN[C@H](CC(C)C)C(=O)N[C@H]1C(=O)N[C@@H](CC(N)=O)C(=O)N[C@H]2C(=O)N[C@H]3C(=O)N[C@H](C(=O)N[C@H](C(=O)O)c4cc(O)cc(O)c4-c4cc3ccc4O)[C@H](O)c3ccc(c(Cl)c3)Oc3cc2cc(c3O[C@@H]2O[C@H](CO)[C@@H](O)[C@H](O)[C@H]2O[C@H]2C[C@](C)(N)[C@H](O)[C@H](C)O2)Oc2ccc(cc2Cl)[C@H]1O [vancomycin] |  | survived |  |  | significantly decreased | significantly decreased |  |  |  |  |  |  |  |  |  |  | re-epithelialization observed | decreased | impairment in overall epidermal maturation |
